Experimental data taken from ChEMBL document CHEMBL5260838 (J Med Chem, 2019).
Values after ≈ are worked out from the molar mass of the structure shown. Active and inactive are the calls of the source. No cut-off for these calls is given here.

Legend:
[1] = target: Sodium channel protein type 9 subunit alpha (Homo sapiens, UniProt Q15858); experiment: Displacement of [3H]GX-545 from human Nav1.7 alpha subunit expressed in HEK293 cells co-expressing beta1 subunit by liquid scintillation counting analysis; assay type: cell-based
Cytochrome P450 3A4 = Cytochrome P450 3A4 (Homo sapiens, UniProt P08684); experiment: Inhibition of CYP3A4 (unknown origin); assay type: ADME
Chain of Cytochrome P450 3A4 (P08684 whole entry): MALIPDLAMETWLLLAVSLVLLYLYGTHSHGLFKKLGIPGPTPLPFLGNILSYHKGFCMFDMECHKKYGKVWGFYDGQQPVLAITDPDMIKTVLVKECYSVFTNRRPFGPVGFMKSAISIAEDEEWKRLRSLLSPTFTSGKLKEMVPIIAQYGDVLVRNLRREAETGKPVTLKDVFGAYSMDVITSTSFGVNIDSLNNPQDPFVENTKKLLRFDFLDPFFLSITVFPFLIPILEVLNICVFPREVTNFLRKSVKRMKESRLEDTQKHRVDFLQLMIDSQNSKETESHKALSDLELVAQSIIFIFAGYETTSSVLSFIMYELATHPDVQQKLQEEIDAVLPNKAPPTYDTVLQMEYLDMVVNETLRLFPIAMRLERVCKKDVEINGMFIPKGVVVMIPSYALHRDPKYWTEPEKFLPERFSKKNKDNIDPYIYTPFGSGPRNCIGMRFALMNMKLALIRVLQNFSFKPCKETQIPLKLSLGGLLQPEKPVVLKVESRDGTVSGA

[2] = Protein binding in human plasma; assay type: ADME, cell-free; details: read-out: PPB (converted)
[3] = target: Sodium channel protein type 9 subunit alpha (Mus musculus, UniProt Q62205); experiment: Inhibition of mouse Nav1.7 at -60 mV holding potential by PatchXpress automated voltage clamp electrophysiology technique
Chain of Sodium channel protein type 9 subunit alpha (Mus musculus, UniProt Q62205) (Q62205 whole entry): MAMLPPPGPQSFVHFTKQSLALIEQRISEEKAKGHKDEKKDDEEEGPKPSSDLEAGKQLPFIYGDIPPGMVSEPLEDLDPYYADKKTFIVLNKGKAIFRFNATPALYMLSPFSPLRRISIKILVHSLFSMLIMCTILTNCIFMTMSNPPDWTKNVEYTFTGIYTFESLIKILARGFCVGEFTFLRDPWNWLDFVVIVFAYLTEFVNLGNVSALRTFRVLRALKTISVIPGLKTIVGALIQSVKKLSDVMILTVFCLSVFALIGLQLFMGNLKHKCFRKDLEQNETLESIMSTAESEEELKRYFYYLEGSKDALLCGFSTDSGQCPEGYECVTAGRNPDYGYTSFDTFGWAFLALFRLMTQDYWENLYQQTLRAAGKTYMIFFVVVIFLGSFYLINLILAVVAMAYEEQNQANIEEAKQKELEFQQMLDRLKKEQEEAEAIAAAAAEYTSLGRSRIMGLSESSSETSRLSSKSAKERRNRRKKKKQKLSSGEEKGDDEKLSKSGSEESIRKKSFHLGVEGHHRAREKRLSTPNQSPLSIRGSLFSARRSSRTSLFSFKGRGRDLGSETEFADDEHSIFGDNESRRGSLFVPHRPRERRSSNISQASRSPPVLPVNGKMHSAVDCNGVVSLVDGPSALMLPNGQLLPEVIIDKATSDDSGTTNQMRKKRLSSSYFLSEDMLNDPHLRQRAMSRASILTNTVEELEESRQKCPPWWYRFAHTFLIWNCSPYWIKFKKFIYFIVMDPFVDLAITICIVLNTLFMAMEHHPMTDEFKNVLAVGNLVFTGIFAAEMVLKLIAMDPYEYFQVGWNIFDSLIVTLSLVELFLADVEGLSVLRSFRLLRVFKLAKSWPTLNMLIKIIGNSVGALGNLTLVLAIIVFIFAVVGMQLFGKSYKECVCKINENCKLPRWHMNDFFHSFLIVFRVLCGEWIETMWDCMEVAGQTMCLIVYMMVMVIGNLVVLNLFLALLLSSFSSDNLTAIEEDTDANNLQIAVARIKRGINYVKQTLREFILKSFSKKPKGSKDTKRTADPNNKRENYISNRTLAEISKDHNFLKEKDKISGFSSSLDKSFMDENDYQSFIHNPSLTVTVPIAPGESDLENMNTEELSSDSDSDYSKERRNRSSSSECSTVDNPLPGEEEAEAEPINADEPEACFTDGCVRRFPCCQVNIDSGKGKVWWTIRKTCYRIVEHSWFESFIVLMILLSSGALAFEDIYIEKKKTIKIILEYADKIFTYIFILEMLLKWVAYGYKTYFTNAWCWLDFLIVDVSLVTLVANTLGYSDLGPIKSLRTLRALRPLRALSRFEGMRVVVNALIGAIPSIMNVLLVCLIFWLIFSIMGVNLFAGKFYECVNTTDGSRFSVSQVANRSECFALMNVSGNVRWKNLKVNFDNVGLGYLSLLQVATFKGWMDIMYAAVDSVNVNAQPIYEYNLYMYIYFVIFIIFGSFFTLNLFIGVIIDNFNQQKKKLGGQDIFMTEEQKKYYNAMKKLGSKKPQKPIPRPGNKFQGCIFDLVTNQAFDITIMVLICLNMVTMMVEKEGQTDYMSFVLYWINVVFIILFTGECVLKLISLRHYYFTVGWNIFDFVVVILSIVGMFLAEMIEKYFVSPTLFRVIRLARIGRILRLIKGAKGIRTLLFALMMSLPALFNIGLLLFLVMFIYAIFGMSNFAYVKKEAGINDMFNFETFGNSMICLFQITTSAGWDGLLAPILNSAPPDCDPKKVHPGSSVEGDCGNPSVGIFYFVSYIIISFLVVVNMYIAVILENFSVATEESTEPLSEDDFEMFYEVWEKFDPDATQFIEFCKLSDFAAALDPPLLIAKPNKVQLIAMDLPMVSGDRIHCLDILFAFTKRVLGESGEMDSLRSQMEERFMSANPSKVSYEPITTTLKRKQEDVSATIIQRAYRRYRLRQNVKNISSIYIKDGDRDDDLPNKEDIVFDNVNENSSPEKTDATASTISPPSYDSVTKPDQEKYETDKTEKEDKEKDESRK

[4] = target: Sodium channel protein type 2 subunit alpha (Homo sapiens, UniProt Q99250); experiment: Inhibition of human Nav1.2 alpha subunit expressed in HEK293 cells co-expressing beta1 subunit at -35 mV holding potential by PatchXpress automated voltage clamp electrophysiology technique; assay type: cell-based
[5] = target: Sodium channel protein type 8 subunit alpha (Homo sapiens, UniProt Q9UQD0); experiment: Inhibition of human Nav1.6 alpha subunit expressed in HEK293 cells co-expressing beta1 subunit at -35 mV holding potential by PatchXpress automated voltage clamp electrophysiology technique; assay type: cell-based
[6] = target: Sodium channel protein type 10 subunit alpha (Mus musculus) (UniProt Q6QIY3); experiment: Inhibition of TTX-resistant Nav1.8 in mouse dorsal root ganglion neuron at 10 uM by voltage clamp recording relative to control; assay type: tissue-based; details: DRG neuron
Chain of Sodium channel protein type 10 subunit alpha (Mus musculus) (Q6QIY3 whole entry): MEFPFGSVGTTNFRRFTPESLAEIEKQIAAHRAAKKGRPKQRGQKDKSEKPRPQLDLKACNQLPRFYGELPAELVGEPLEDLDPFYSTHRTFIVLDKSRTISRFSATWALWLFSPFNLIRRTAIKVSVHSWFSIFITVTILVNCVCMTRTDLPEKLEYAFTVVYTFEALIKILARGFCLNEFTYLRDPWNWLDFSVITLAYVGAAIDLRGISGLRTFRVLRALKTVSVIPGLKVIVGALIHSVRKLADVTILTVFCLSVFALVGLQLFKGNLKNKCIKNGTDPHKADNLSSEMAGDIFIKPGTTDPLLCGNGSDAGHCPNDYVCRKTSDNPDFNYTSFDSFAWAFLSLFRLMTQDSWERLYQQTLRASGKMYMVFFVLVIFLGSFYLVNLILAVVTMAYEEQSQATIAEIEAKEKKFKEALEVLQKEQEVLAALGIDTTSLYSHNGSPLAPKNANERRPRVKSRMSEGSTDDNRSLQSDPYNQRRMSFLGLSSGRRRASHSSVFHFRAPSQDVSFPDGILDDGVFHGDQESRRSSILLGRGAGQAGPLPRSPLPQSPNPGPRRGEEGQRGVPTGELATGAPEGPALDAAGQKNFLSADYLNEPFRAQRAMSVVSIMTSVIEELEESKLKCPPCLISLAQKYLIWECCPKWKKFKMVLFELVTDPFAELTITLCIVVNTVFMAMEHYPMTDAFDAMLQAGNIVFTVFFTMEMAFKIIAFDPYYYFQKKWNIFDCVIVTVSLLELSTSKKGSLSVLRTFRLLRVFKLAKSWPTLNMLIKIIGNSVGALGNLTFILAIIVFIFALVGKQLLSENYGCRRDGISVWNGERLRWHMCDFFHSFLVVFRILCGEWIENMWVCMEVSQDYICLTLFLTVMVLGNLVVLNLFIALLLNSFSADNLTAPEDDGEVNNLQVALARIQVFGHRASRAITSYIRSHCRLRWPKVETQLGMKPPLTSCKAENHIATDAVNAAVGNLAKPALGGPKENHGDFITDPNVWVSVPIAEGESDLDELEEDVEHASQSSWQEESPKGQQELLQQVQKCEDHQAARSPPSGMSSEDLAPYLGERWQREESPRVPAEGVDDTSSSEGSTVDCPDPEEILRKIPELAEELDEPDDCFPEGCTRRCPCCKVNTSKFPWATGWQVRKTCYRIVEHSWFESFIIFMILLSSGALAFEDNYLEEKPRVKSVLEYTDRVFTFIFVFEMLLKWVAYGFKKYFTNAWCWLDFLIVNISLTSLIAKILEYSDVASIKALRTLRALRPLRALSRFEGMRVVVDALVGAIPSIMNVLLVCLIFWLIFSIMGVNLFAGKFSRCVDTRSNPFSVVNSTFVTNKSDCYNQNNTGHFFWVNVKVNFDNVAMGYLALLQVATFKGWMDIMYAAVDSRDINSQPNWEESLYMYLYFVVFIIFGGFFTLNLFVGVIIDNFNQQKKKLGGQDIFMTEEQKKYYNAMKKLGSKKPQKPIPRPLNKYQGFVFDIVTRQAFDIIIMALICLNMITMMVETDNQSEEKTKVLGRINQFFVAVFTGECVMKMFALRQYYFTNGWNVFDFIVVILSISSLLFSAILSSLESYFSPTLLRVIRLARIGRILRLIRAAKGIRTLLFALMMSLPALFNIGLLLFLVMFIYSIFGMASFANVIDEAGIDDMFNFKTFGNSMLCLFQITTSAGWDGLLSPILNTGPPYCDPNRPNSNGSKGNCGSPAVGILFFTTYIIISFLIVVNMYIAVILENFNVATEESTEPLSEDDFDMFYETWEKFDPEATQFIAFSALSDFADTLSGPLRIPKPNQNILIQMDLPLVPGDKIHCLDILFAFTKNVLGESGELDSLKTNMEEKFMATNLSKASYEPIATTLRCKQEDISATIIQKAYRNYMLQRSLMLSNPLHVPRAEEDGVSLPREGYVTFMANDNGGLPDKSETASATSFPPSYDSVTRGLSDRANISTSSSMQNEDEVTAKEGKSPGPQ

[7] = Protein binding in rat plasma; assay type: ADME, cell-free; details: read-out: PPB (converted)
[8] = Kinetic solubility of compound; assay type: physicochemical; details: read-out: Kinetic_solubility
MDR1 [9] = experiment: Apparent permeability from apical to basolateral side in MDCK1 cells expressing MDR1; assay type: ADME, cell-based, Canis lupus familiaris; details: dog, MDCK-MDR1
MDR1 [10] = experiment: Efflux ratio of apparent permeability across basolateral to apical side over apical to basolateral side in MDCK1 cells expressing MDR1; assay type: ADME, cell-based, Canis lupus familiaris; details: dog, MDCK-MDR1
[11] = system: mouse breast cancer resistant protein (Bcrp); experiment: Apparent permeability from apical to basolateral side in MDCK-II cells expressing mouse breast cancer resistant protein; assay type: ADME, cell-based, Canis lupus familiaris; details: dog
Homo sapiens = species on record: Homo sapiens; experiment: Inhibition of voltage-gated sodium channel (unknown origin) at 10 uM relative to control
[12] = target: T1, Peroxisome proliferator-activated receptor gamma (Homo sapiens) (UniProt P37231); experiment: Inhibition of PPARgamma (unknown origin) at 10 uM relative to control
T1 sequence (whole entry): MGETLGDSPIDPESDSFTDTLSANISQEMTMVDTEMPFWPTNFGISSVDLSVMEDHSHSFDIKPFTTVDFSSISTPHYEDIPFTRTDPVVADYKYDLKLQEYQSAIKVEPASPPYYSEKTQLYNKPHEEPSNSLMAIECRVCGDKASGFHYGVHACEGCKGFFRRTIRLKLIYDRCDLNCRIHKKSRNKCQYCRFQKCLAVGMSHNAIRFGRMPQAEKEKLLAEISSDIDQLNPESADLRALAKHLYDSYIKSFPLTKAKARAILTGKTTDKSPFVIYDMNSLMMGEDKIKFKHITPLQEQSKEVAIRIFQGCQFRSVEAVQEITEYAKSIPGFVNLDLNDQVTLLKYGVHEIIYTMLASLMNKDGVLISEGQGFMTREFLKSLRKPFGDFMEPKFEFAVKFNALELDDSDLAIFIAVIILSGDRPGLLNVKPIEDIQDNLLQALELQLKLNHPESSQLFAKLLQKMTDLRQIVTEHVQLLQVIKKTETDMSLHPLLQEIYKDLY

[13] = Half-life in FVB mouse at 1 mg/kg, iv; assay type: ADME, organism-based; details: in vivo, iv, 1 mg/kg
[14] = Volume of distribution at steady state in FVB mouse at 1 mg/kg, iv; assay type: ADME, organism-based; details: in vivo, iv, 1 mg/kg
[15] = Cmax in FVB mouse at 30 mg/kg, po; assay type: ADME, organism-based; design: dose 30 mg/kg, route po; details: in vivo
[16] = AUC in FVB mouse at 30 mg/kg, po; assay type: ADME, organism-based; design: dose 30 mg/kg, route po; details: in vivo
[17] = Oral bioavailability in FVB mouse at 30 mg/kg; assay type: ADME, organism-based; details: in vivo
[18] = Clearance in Sprague-Dawley rat at 1 mg/kg, iv; assay type: ADME, organism-based; details: in vivo
[19] = Volume of distribution at steady state in Sprague-Dawley rat at 1 mg/kg, iv; assay type: ADME, organism-based; details: in vivo, read-out: Vdss
[20] = Cmax in Sprague-Dawley rat at 5 mg/kg, po; assay type: ADME, organism-based; design: dose 5 mg/kg, route po; details: in vivo
[21] = AUC in Sprague-Dawley rat at 5 mg/kg, po; assay type: ADME, organism-based; design: dose 5 mg/kg, route po; details: in vivo
[22] = Clearance in Beagle dog at 0.5 mg/kg, iv; assay type: ADME, organism-based, Canis lupus familiaris; details: in vivo
[23] = Volume of distribution at steady state in Beagle dog at 0.5 mg/kg, iv; assay type: ADME, organism-based, Canis lupus familiaris; details: in vivo, read-out: Vdss
[24] = Half-life in Beagle dog at 1 mg/kg, po; assay type: ADME, organism-based, Canis lupus familiaris; details: in vivo
[25] = Cmax in Beagle dog at 1 mg/kg, po; assay type: ADME, organism-based, Canis lupus familiaris; design: dose 1 mg/kg, route po; details: in vivo
Mus musculus [26] = experiment: Analgesic activity against formalin-induced pain in FVB mouse model assessed as reduction in formalin-induced pain at 10 mg/kg, po administered for 120 mins prior to formalin challenge and measured after 11 to 40 mins; assay type: functional, organism-based; details: time 131-160 min
Mus musculus [27] = experiment: Antinociceptive activity against aconitine-induced pain in FVB mouse model expressing human Nav 1.7 I848T mutant assessed as reduction in nociceptive behavior at 0.1 mg/kg, po administered 120 mins prior to aconitine administration and measured after 70 mins relative to control; assay type: functional; design: scale not given: the % may be the effect or the level left; details: time 190 min, 3.167 h
Mus musculus [28] = experiment: Antinociceptive activity against aconitine-induced pain in FVB mouse model expressing human Nav 1.7 I848T mutant assessed as reduction in nociceptive behavior at 0.3 mg/kg, po administered 120 mins prior to aconitine administration and measured after 70 mins relative to control; assay type: functional; design: scale not given: the % may be the effect or the level left; details: time 190 min, 3.167 h
[29] = Drug concentration in plasma of FVB mouse model of aconitine-induced pain expressing human Nav1.7 I848T mutant at 3 mg/kg, po administered 120 mins prior to aconitine administered and measured after 70 mins by UPLC-ESI MS/MS analysis; assay type: ADME, organism-based; details: time 190 min
[30] = Drug concentration in brain of FVB mouse model of aconitine-induced pain expressing human Nav1.7 I848T mutant at 3 mg/kg, po administered 120 mins prior to aconitine administered and measured after 70 mins by UPLC-ESI MS/MS analysis; assay type: ADME, organism-based; details: time 190 min, read-out: Ct
[31] = Drug concentration in brain of FVB mouse model of aconitine-induced pain expressing human Nav1.7 I848T mutant at 10 mg/kg, po administered 120 mins prior to aconitine administered and measured after 70 mins by UPLC-ESI MS/MS analysis; assay type: ADME, organism-based; details: time 190 min, read-out: Ct
[32] = Brain to plasma ratio in FVB mouse model of aconitine-induced pain expressing human Nav1.7 I848T mutant administered orally 120 mins prior to aconitine administered and measured after 70 mins by UPLC-ESI MS/MS analysis; assay type: ADME; details: route po, time 190 min, read-out: BPR
[33] = Drug concentration in plasma of orally dosed formalin-induced FVB mouse model of pain measured after 3 hrs by UPLC-ESI […] analysis; assay type: ADME, organism-based; details: route po
[34] = Toxicity in FVB mouse assessed as tolerance; details: in vivo

## CC1(COc2cc(F)c(C(=O)NS(=O)(=O)C3CC3)cc2C2CC2)CCC2(CC1)CC2
[1]
  IC50: 15 nM
Cytochrome P450 3A4
  IC50: > 10000 nM
[2]
  fraction unbound: 0.001
[3]
  IC50: 2.2 nM
[4]
  IC50: 2 nM
[5]
  IC50: 38 nM
[6]
  inhibition: 38%
[7]
  fraction unbound: 0.001
[8]
  solubility kinetic: 10 µM (≈ 4.36 µg/mL)
MDR1 [9]
  Papp A→B: 3.7 ×10⁻⁶ cm/s
MDR1 [10]
  efflux ratio: 1.2
[11]
  Papp A→B: 5.1 ×10⁻⁶ cm/s
Homo sapiens
  inhibition: 80%
[12]
  inhibition: 91%
[13]
  t1/2: 1.5 h
[14]
  Vdss: 0.41 L/kg
[15]
  Cmax: 22 µM
[16]
  AUC: 113 µM·h
[17]
  bioavailability: 31%
[18]
  clearance: 1.2 mL/min/kg
[19]
  Vd: 0.88 L/kg
[20]
  Cmax: 13 µM
[21]
  AUC: 78 µM·h
[22]
  clearance: 0.3 mL/min/kg
[23]
  Vd: 0.14 L/kg
[24]
  half-life: 6 h
[25]
  Cmax: 9 µM
Mus musculus [26]
  Activity: Active
Mus musculus [27]
  Activity: 10%
Mus musculus [28]
  Activity: 78%
[29]
  concentration at 3.167 h: 25 µM
[30]
  concentration at 3.167 h: 1.9 µM
[31]
  concentration at 3.167 h: 6.2 µM
[32]
  Kp at 3.167 h: 0.08
[33]
  concentration at 3 h: 50 µM
[34]
  Activity: Non-Toxic
